Results on 1 compound are retold here after patent US20240217922A1, “MODULATORS OF SORTILIN ACTIVITY” (Insusense ApS, priority 2021, published 2024).

The experiment has as its target hSortilin (Homo sapiens (Human), UniProt Q99523). In words: Neurotensin scintillation proximity assay, [125I]-neurotensin. The settings on record: displacement of [125I]-neurotensin binding to 6his-Sortilin; average of at least 2 determinations; read-out: IC50 [125I]Neurotensin SPA. A general note: Scintillation proximity formats need no separation of bound from free tracer.

hSortilin, sequence (Q99523 78-831): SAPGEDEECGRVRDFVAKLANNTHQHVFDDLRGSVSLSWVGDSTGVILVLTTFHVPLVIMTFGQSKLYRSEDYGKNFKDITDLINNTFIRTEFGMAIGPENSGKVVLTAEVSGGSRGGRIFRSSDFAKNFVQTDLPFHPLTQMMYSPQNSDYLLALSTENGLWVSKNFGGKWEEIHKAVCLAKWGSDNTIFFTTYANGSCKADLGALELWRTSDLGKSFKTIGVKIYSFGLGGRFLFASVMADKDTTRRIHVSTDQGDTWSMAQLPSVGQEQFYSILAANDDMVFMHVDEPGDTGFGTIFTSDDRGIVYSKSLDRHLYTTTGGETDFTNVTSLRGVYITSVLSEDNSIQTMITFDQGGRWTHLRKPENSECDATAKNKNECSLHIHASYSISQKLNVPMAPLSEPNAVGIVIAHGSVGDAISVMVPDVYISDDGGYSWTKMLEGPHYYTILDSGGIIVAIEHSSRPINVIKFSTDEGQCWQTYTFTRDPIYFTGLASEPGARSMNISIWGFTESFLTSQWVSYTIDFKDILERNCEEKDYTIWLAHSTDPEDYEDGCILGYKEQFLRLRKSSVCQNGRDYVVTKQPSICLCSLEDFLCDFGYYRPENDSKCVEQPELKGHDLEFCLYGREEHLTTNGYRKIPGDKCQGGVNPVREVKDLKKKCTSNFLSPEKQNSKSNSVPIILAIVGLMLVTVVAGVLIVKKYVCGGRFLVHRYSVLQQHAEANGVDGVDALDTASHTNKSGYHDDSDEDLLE
Description: Compound affinity was determined by measuring the displacement of
[3H]-neurotensin or [125I]-neurotensin binding to hSortilin in SPA format. Total volume of 40 μl in 50 mM HEPES pH 7.4 assay buffer containing 100 mM NaCl, 2.0 mM CaCI2, 0.1% BSA and 0.1% Tween-20. […] IC50 values were calculated by nonlinear regression using the sigmoid concentration-response (variable slope) using CDD Vault software. All values reported are average of at least 2 determinations.

The IC50 is the concentration needed to halve the response being measured. As for `CC[C@H](C)[C@H](NC(C)=O)C(=O)N[C@@H](CCC(C)(C)C)C(=O)O` [Example 16, (S)-2-((2S,3S)-2-Acetamido-3-methylpentanamido)-5,5-dimethylhexanoic Acid], the half-maximal inhibitory concentration (IC50) worked out at 290 nM.
